Values quoted from earlier work in patent publication US20230084129A1, “PHARMACEUTICAL COMPOSITION COMPRISING ESOMEPRAZOLE AND SODIUM BICARBONATE HAVING EXCELLENT RELEASE PROPERTIES” (Chong Kun Dang Pharmaceutical Corp., priority 2020, published 2023).

Conditions: aqueous solution having a pH of 3 or less

SMILES: COc1ccc2nc([S@@+]([O-])Cc3ncc(C)c(OC)c3C)[nH]c2c1 [esomeprazole, (S)-5-methoxy-2-[(4-methoxy-3,5-dimethyl-2-pyridinyl)-methyl]sulfinyl-1H-benzimidazole]
- degradation half-life: less than 10 minutes
